From PMC6661766, “Antimicrobial, antioxidant and cytotoxic evaluation of diazenyl chalcones along with insights to mechanism of interaction by molecular docking studies” (BMC Chemistry, 2019) come the findings set out here.

Data set [1] deals with B. cereus. The experiment in a line: Antimicrobial serial tube dilution, MIC and MBC. Particulars: Bacillus cereus; for MIC: 24 h, read-out: B. cereus MIC; for MBC: read-out: B. cereus MBC. The format is cell-based, Bacillus cereus MTCC 1305. The method, then: (§1) The synthesized diazenyl chalcones (C18 to C27) and controls (dyes A and E, and chalcone) were assessed for their antimicrobial activity by estimation of MIC and MBC/MFC values. […] The stock solutions of the test compounds and standard drugs having a concentration of 1000 µg ml^−1 were prepared by dissolving the used compounds in DMSO. The nutrient broth/Sabouraud dextrose broth was used for the serial dilution of the test compounds and referenced drugs for bacterial and fungal cultures, respectively. […] The size of the final inoculum in each test tube was taken as 5 × 10^5 CFU ml^−1. The incubation of the test and standard compounds of varying concentrations was done for 24 h at 37 ± 2 °C (bacterial culture) and for 48 h at 37 ± 2 °C (C. albicans) and for 7 d at 25 ± 2 °C (A. fumigatus). The diazenyl chalcones (C18–C27), were further evaluated for their bactericidal/fungicidal activity by estimation of MBC/MFC values. […] For proper mixing of culture media, the plates were shaken gently followed by incubation at the predefined temperature and time as stated earlier, followed by the visual inspection of the plates for signs of microbial growth.

Data set [2] has as its system S. typhi. In words: Antimicrobial serial tube dilution, MIC and MBC. The format is cell-based, Salmonella typhi MTCC 3216. Particulars: Salmonella enterica, TYPHI; for MIC: 24 h, read-out: S. typhi MIC; for MBC: read-out: S. typhi MBC. The procedure: as §1
For data set [3], the system named is E. coli. The experiment in a line: Antimicrobial serial tube dilution, MIC and MBC. The format is cell-based, Escherichia coli MTCC 1652. Particulars: for MIC / MBC: Escherichia coli; for MIC: 24 h, read-out: E. coli MIC, 24 h at 37 ± 2 °C; for MBC: read-out: E. coli MBC. The procedure:
as §1

Data set [4] deals with S. aureus. The experiment in a line: Antimicrobial serial tube dilution, MIC and MBC. Conditions: Staphylococcus aureus; for MIC: 24 h, read-out: S. aureus MIC; for MBC: read-out: S. aureus MBC. The format is cell-based, Staphylococcus aureus MTCC 2901. The procedure: as §1
Data set [5] has as its system B. subtilis. In words: Antimicrobial serial tube dilution, MIC and MBC. It counts as cell-based, Bacillus subtilis MTCC 2063. Particulars: Bacillus subtilis; for MIC: 24 h, read-out: B. subtilis MIC; for MBC: read-out: B. subtilis MBC. The method, then: as §1
For data set [6], the system named is C. albicans. The experiment in a line: Antimicrobial serial tube dilution, MIC and MFC. It counts as cell-based, Candida albicans MTCC 227. Particulars: Candida albicans; for MIC: 48 h, read-out: C. albicans MIC; for MFC: read-out: C. albicans MFC. The method, then: as §1
Data set [7] relates to A. fumigatus. In words: Antimicrobial serial tube dilution, MIC and MFC. The format is cell-based, Aspergillus fumigatus MTCC 2584. Conditions: Aspergillus fumigatus; for MIC: 168 h, read-out: A. fumigatus MIC; for MFC: read-out: A. fumigatus MFC. The method, then: as §1
The nature of data set [8]: DPPH scavenging antioxidant assay. The procedure:
The derivatives (C18–C27) were assessed for their antioxidant potential in the presence of the stable free radical DPPH using ascorbic acid as the standard compound [36, 37]. […] The total volume of 200 µl was used in each well for each concentration of the test and standard drug containing 0.004 µg DPPH. The assay was performed in triplicate at all concentrations of each sample and standard compound. DPPH solutions in methanol at the same concentration without test drugs were used as the control. Each concentration of the sample and standard has a different blank. To minimize evaporation, the plate was covered with the lid and wrapped in aluminium foil and kept in the dark place in order to protect the DPPH radical from degradation by light and left for 30 min. After 30 min of incubation, the plate was kept in ELISA reader to measure the absorbance values at 517 nm. The experiment was performed in triplicate. The antioxidant activity of each sample was then calculated as per cent inhibition of DPPH according to the following equation: %decolourationofDPPH=ControlAbs-SampleAbs×100/ControlAbs
On the technique in general: The DPPH test is a chemical assay of radical scavenging.

Values after ≈ are worked out from the molar mass of the structure shown. Some results are limits rather than exact numbers.

For `O=C(/C=C\c1ccccc1[N+](=O)[O-])c1cccc(N=Nc2cccc(Cl)c2Cl)c1O` [Compound C-20, (2Z)-1-(3-((2,3-Dichlorophenyl)diazenyl)-2-hydroxyphenyl)-3-(2-nitrophenyl)prop-2-en-1-one], the melting point (as a rule, the temperature, or range, at which the solid turns liquid) lay within 105 to 107 °C. In data set [1], the MIC – broadly, the lowest concentration found to suppress growth – stood at 125 µg/mL (≈ 283 µM) and the MBC (commonly the lowest tested concentration that kills the bacteria rather than only halting them) is 125 µg/mL (≈ 283 µM). For the same compound, in data set [2], the MIC is 125 µg/mL (≈ 283 µM) and the MBC amounted to 125 µg/mL (≈ 283 µM). For the same compound, in [3], the MIC worked out at 125 µg/mL (≈ 283 µM) and the minimum bactericidal concentration (MBC) stood at 250 µg/mL (≈ 565 µM). Moreover, in data set [4], the MIC came to 125 µg/mL (≈ 283 µM) and the MBC was determined as 125 µg/mL (≈ 283 µM). For the same compound, in data set [5], the minimal inhibitory concentration (MIC) stood at 62.5 µg/mL (≈ 141 µM) and the MBC was 125 µg/mL (≈ 283 µM). In data set [6], the minimum inhibitory concentration (MIC) came to 125 µg/mL (≈ 283 µM) and the MFC (in general, the smallest concentration meeting the test's criterion for killing the fungus) came out at 250 µg/mL (≈ 565 µM). Besides, in data set [7], the MIC worked out at 125 µg/mL (≈ 283 µM) and the MFC was 125 µg/mL (≈ 283 µM). For the same compound, in data set [8], the “IC50 DPPH” value is more than 100 µg/mL. Moreover, the “% inhibition of DPPH” value in [8] (1.56 µg ml^−1) stood at 8.15%. Further, in data set [8] (3.12 µg ml^−1), the “% inhibition of DPPH” value came out at 9.87%. Further, in [8] (6.25 µg ml^−1), the “% inhibition of DPPH” value was 10.51%. In addition, the “% inhibition of DPPH” value in [8] (12.5 µg ml^−1) worked out at 14.32%. Moreover, in [8] (25 µg ml^−1), the “% inhibition of DPPH” value was 18.96%. Moreover, in data set [8] (50 µg ml^−1), the “% inhibition of DPPH” value is recorded as 20.76%. In addition, the “% inhibition of DPPH” value in data set [8] (100 µg ml^−1) was found to be 29.39%.

The compound `O=C(/C=C\c1cc(Br)ccc1O)c1ccc(N=Nc2c(O)cccc2O)cc1` [Compound C-21, (2Z)-3-(5-Bromo-2-hydroxyphenyl)-1-(4-((2,6-dihydroxyphenyl)diazenyl)phenyl)prop-2-en-1-one] showed a melting point of 155 to 157 °C. In addition, in data set [1], the MIC worked out at 62.5 µg/mL (≈ 142 µM) and the MBC amounted to 62.5 µg/mL (≈ 142 µM). In [2], the MIC is 31.2 µg/mL (≈ 71.1 µM) and the MBC amounted to 125 µg/mL (≈ 285 µM). Further, the “E. coli MIC” value in [3] (24 h at 37 ± 2 °C) turned out to be 15.62 µg/mL. In [3], the MIC lay within 7.81 to 15.6 µg/mL (≈ 17.8 to 35.6 µM) and the minimum bactericidal concentration (MBC) was found to be 31.2 µg/mL (≈ 71.1 µM). In data set [4], the MIC was 125 µg/mL (≈ 285 µM) and the MBC worked out at 125 µg/mL (≈ 285 µM). Besides, in data set [5], the minimal inhibitory concentration (MIC) was found to be 31.2 µg/mL (≈ 71.1 µM) and the MBC stood at 62.5 µg/mL (≈ 142 µM). For the same compound, in data set [6], the MIC was 62.5 µg/mL (≈ 142 µM) and the MFC came out at 125 µg/mL (≈ 285 µM). For the same compound, in data set [7], the MIC is 125 µg/mL (≈ 285 µM) and the MFC is 125 µg/mL (≈ 285 µM). Besides, the “% inhibition of DPPH” value in data set [8] (1.56 µg ml^−1) came to 8.71%. Also, in data set [8] (3.12 µg ml^−1), the “% inhibition of DPPH” value is 12.99%. Moreover, the “% inhibition of DPPH” value in data set [8] (6.25 µg ml^−1) was 20.98%. The “% inhibition of DPPH” value in data set [8] (12.5 µg ml^−1) worked out at 25.71%. Also, the “% inhibition of DPPH” value in data set [8] (25 µg ml^−1) is 30.75%. For the same compound, the “% inhibition of DPPH” value in [8] (50 µg ml^−1) came to 35.78%. In addition, the “% inhibition of DPPH” value in data set [8] (100 µg ml^−1) is 39.56%.

As to `CC(=O)c1ccc(O)c(N=Nc2cccc(Cl)c2Cl)c1` [Dye A, 1-(3-((2,3-Dichlorophenyl)diazenyl)-4-hydroxyphenyl)ethanone], the melting point lay in the range of 140 to 142 °C. In [1], the minimal inhibitory concentration (MIC) was found to be 31.2 µg/mL (≈ 101 µM) and the MBC turned out to be 31.2 µg/mL (≈ 101 µM). In data set [2], the MIC came out at 62.5 µg/mL (≈ 202 µM) and the MBC stood at 62.5 µg/mL (≈ 202 µM). For the same compound, in data set [3], the MIC was 15.6 µg/mL (≈ 50.5 µM) and the MBC is 31.2 µg/mL (≈ 101 µM). Also, in [4], the MIC amounted to 125 µg/mL (≈ 404 µM) and the MBC stood at 125 µg/mL (≈ 404 µM). In addition, in [5], the MIC was found to be 125 µg/mL (≈ 404 µM) and the MBC turned out to be 125 µg/mL (≈ 404 µM). In data set [6], the minimal inhibitory concentration (MIC) came out at 62.5 µg/mL (≈ 202 µM) and the minimal fungicidal concentration (MFC) worked out at 62.5 µg/mL (≈ 202 µM). In data set [7], the MIC amounted to 125 µg/mL (≈ 404 µM) and the MFC was determined as 125 µg/mL (≈ 404 µM). Besides, the “IC50 DPPH” value in data set [8] was more than 100 µg/mL. Also, the “% inhibition of DPPH” value in [8] (1.56 µg ml^−1) came out at 4.65%. Besides, the “% inhibition of DPPH” value in data set [8] (3.12 µg ml^−1) is reported as 9.23%. In data set [8] (6.25 µg ml^−1), the “% inhibition of DPPH” value amounted to 11.97%. The “% inhibition of DPPH” value in [8] (12.5 µg ml^−1) worked out at 17.67%. For the same compound, in data set [8] (25 µg ml^−1), the “% inhibition of DPPH” value was 22.18%. Besides, the “% inhibition of DPPH” value in [8] (50 µg ml^−1) came out at 29.87%. Also, the “% inhibition of DPPH” value in data set [8] (100 µg ml^−1) came to 35.45%.
